Experimental data from US7799788B2, “Method of treating chronic myelogenous leukemia cells” (University of South Florida, priority 2006, dated 2010).

Tests used:
K562 cells = assay: Apoptosis by Annexin-V staining (flow cytometry), K562 cells; type: cell-based, human; settings: 10 nM dasatinib, 48 hours
Experimental: Untreated or drug-treated cells were stained with Annexin-V (Pharmingen, San Diego, Calif.) and propidium iodide (PI) and the percentage of apoptotic cells were determined by flow cytometry. […] The percentage of apoptotic cells was determined by flow cytometry. The combination index (CI) for each drug combination was obtained by median dose effect of Chou and Talalay utilizing the combination index equation within the commercially available software Calcusyn (Biosoft, Ferguson, Mo.).

LAMA-84 cells = assay: Apoptosis by Annexin-V staining (flow cytometry), LAMA-84 cells; type: cell-based, human; settings: 10 nM dasatinib, 48 hours
Experimental: FIG. 1D. […] Following treatment, the percentages of annexin-V-stained apoptotic cells were measured by flow cytometry. Values represent the mean of three experiments±S.E.M.
Bcr-Abl-expressing, CML LAMA-84 and K562 cells were obtained and maintained in culture, as previously described. […] Following these treatments, cells or cell pellets were washed free of the drug(s) prior to the performance of the studies.

[1] = system: normal bone marrow progenitor cells (NBMC's); assay: Loss of survival of normal bone marrow progenitor cells; type: cell-based
[2] = system: primary IM-resistant CML cells; assay: Percentage non-viable cells by trypan blue uptake, primary IM-resistant CML-BC cells; type: cell-based, human; settings: 48 hours
Experimental: FIG. 6. […] Following this, the percentages of non-viable cells for each drug alone or drug combination were determined by trypan blue uptake in hemocytometer. Values represent the percentage of non-viable cells from each condition as compared to untreated cells.
Primary CML cells. CML cells from the peripheral blood and/or bone marrow of eleven patients who had met the clinical criteria of IM-resistant advanced phase of CML were harvested and purified, as previously described. Informed consents were signed by all patients to allow use of their cells for these experiments, as part of a clinical protocol approved by the University of South Florida Institutional Review Board (IRB).
Cells were stained with trypan blue (Sigma, St. Louis, Mo.).

BaF3/Bcr-AblE255K cells = assay: Apoptosis by Annexin-V staining, BaF3/Bcr-AblE255K cells; settings: 2.0 μM vorinostat, 48 hours
Experimental: After treatment, the percentage of Annexin-V-stained apoptotic cells was determined by flow cytometry.
BaF3/Bcr-Abl, BaF3/Bcr-AblE255K, and BaF3/Bcr-AblT315I cells were treated with the indicated concentrations of vorinostat for 48 hours. After treatment, the percentage of Annexin-V-stained apoptotic cells was determined by flow cytometry.
Following treatment, the percentage of annexin-V-stained apoptotic cells was determined by flow cytometry.
Stably expressing cells were then further selected by removal of IL-3.
Untreated or drug-treated cells were stained with Annexin-V (Pharmingen, San Diego, Calif.) and propidium iodide (PI) and the percentage of apoptotic cells were determined by flow cytometry. […] The percentage of apoptotic cells was determined by flow cytometry.

SMILES	apoptosis of K562 cells (K562 cells)	apoptosis of LAMA-84 cells (LAMA-84 cells)	effect on NBMC ([1]; dasatinib up to 20 nM)	loss of cell viability, samples #1 to #9 ([2]; IM-resistant primary CML cells, mutational status not determined)	loss of survival of NBMC ([1]; 2.0 μM vorinostat, mean of 2 samples)	loss of cell viability, all samples including #10 and #11 ([2]; 2.0 μM vorinostat alone)	apoptosis of BaF3/Bcr-AblE255K cells (BaF3/Bcr-AblE255K cells)
Cc1nc(Nc2ncc(C(=O)Nc3c(C)cccc3Cl)s2)cc(N2CCN(CCO)CC2)n1 [dasatinib, N-(2-chloro-6-methylphenyl)-2-[[6-[4-(2-hydroxyethyl)-1-piperazinyl]-2-methyl-4-pyrimidinyl]amino]-5-thiazolecarboxamide]	~50%	approximately 90%	no effect	induced loss of cell viability in a dose dependent manner			
O=C(CCCCCCC(=O)Nc1ccccc1)NO [vorinostat, suberoylanilide hydroxamic acid]					15.9%	induced loss of cell viability in all of the samples	approximately 40%
